These results are taken from PubChem BioAssay (NCI).

Holding throughout (test): NCI tumour cell line growth inhibition, 48 h
In experiment [1] the test system is HOP-62 NSCLC.
For experiment [2], the system named is RPMI-8226 leukemia.
In experiment [3] the test system is SF-268 CNS.
Experiment [4] deals with CAKI-1 renal.
In experiment [5] the test system is BT-549 breast.
In experiment [6] the test system is SF-539 CNS.
Experiment [7] concerns UACC-257 melanoma.
Experiment [8] has as its system EKVX NSCLC.
Experiment [9] concerns U251 CNS.
Experiment [10] deals with HCT-116 colon.

Values joined by “and” are separate entries in the source; they are usually repeats but may differ in a detail not shown here. Equal values may be shown once.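 A five-concentration, 48-hour dose response in 96-well plates underlies each endpoint, interpolated linearly between surrounding concentrations. GI50 marks 50% less growth. TGI marks complete inhibition of growth.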

For `COc1ccc2nc3cc([N+](=O)[O-])ccc3c(Nc3ccc(S(=O)(=O)NC(C)=O)cc3)c2c1`, the TGI in experiment [1], in [2], in experiment [3], in experiment [4], in experiment [5] and in experiment [6] was over 100 µM each time. Also, the TGI in [7], in experiment [8], in experiment [9] and in experiment [10] was over 100 µM throughout.

Take `CCNC(=O)c1cc(/C=C/c2ccc([N+](=O)[O-])o2)nc2ccccc12`: the TGI in experiment [1], in experiment [2], in experiment [3], in [4], in experiment [5] and in [6] was over 100 µM in each case. The TGI in [7] was 28.2 µM; in experiment [8] it was over 100 µM; in experiment [9], over 100 µM; in [10], over 100 µM.

Regarding `C[C@@H]1CC[C@H]2C(C(O)CCCCC(O)C3=C(C(F)(F)F)O[C@@H]4O[C@@]5(C)CC[C@H]6[C@H](C)CC[C@@H]3[C@@]46OO5)=C(C(F)(F)F)O[C@@H]3O[C@@]4(C)CC[C@@H]1[C@]32OO4` (some centres not stated), the GI50 in experiment [1] was 36.9 µM; in [2], 5.06 µM; in [3], 19.5 µM; in experiment [4] it was 5.72 µM; in experiment [5] it was 80.5 µM; in [6], 90.7 µM. The GI50 in experiment [7] was 14.9 µM; in experiment [8] it was 31.9 µM; in experiment [9], 19.8 µM; in experiment [10], 7.17 µM. Further, the TGI in experiment [1], in experiment [2], in experiment [3], in [4], in experiment [5] and in [6] was over 100 µM in each case. In addition, the TGI in [7], in experiment [8], in experiment [9] and in [10] was over 100 µM in each case.

Regarding `COc1ccc(-n2c(=O)n(C)c(=O)n2-c2ccc(OC)cc2)cc1`, the TGI in experiment [1], in experiment [2], in [3], in experiment [4], in [5] and in experiment [6] was over 100 µM in each case. Moreover, the TGI in experiment [7], in experiment [8], in [9] and in [10] was over 100 µM in each case.

Turning to `CC(C)(Oc1ccc(Cl)cc1)C(=O)N(C(=O)N1CCC(c2ccccc2)CC1)c1ccccc1`, the TGI in [1] is over 100 µM; in experiment [2], over 46.3 µM; in experiment [3], over 100 µM; in experiment [4], over 100 µM; in experiment [5], over 95.8 µM; in experiment [6], over 100 µM. For the same compound, the TGI in [7], in experiment [8], in [9] and in experiment [10] was over 100 µM each time.

As to `COc1ccc(C(SC2C(O)C(CO)OC2n2ccc(N)nc2=O)(c2ccccc2)c2ccc(OC)cc2)cc1` (configuration not stated), the TGI in experiment [1] was 40.5 µM; in experiment [2] it was 59.3 µM; in experiment [3], 39.5 µM; in [4] it was over 100 µM; in experiment [5], 43 µM; in experiment [6], 36.3 µM. Besides, the TGI is 41.7 µM in experiment [7], 50.4 µM in [8], 33 µM in experiment [9] and 29.4 µM in [10].

`C=C(CO[Si](C)(C)C(C)(C)C)C(C)=O`: the TGI is over 100 µM in experiment [1]; over 77.8 µM in [2]; over 74.6 µM in experiment [3]; 46.9 µM in [4]; 44 µM in experiment [5]; over 62.2 µM in experiment [6]. In addition, the TGI in experiment [7] was 34.3 µM; in [8] it was over 100 µM; in [9], over 100 µM; in experiment [10], 27 µM.

Consider `CCOP(=O)(OCC)C1CC(n2cc(C)c(=O)[nH]c2=O)OC1CO` (configuration not stated), for which the TGI in [1], in experiment [2], in [3], in experiment [4], in [5] and in [6] was over 100 µM throughout. The TGI in [7], in experiment [8], in experiment [9] and in [10] was over 100 µM in each case. The GI50 in experiment [8] is 44.1 µM and > 100 µM.

For the compound `CC[N+]1(C)CCC(O)(c2ccc(Cl)c(Cl)c2)C(C(=O)c2ccc(Cl)c(Cl)c2)C1` (configuration not stated), the TGI in [1], in experiment [2], in experiment [3], in [4], in experiment [5] and in [6] was over 10 µM throughout. Further, the TGI in experiment [7], in [8], in [9] and in experiment [10] was over 10 µM each time.

With `O=C(Nc1ccccc1)N(CCCCN(Cc1ccccc1)C(=O)Nc1ccccc1)Cc1ccccc1`, the TGI in experiment [1], in [2], in experiment [3], in experiment [4], in experiment [5] and in experiment [7] was over 100 µM in each case. Also, the TGI in experiment [8], in experiment [9] and in experiment [10] was over 100 µM each time.

As to `S=C1SCN(Cc2ccco2)CN1c1ccc(Br)cc1`, the TGI amounted to 51.9 µM in experiment [1]; 35.3 µM in experiment [2]; 40.7 µM in [3]; 42.7 µM in [4]; 44 µM in [5]; 36.2 µM in [6]. The TGI in experiment [7] stood at 42.6 µM; in experiment [8] it was 64.6 µM; in [9], 57.9 µM; in experiment [10] it was 42.2 µM.

For `COc1ccc(-c2cc(-c3ccc(Nc4ccnc5cc(Cl)ccc45)cc3)[nH]c(=O)c2C#N)c2ccccc12`, the TGI in experiment [1] was over 53.9 µM; in experiment [2], 7.28 µM; in experiment [3], over 96.6 µM; in experiment [4] it was 48.4 µM; in [5], 71.7 µM; in experiment [7] it was 99.4 µM. For the same compound, the TGI in experiment [8] was over 100 µM.
